Converted amounts (≈) assume the structure as drawn. “Also recorded” adds a separate entry of the source.
Columns and labels:
[1] = system: E. coli strains harboring plasmid-borne antibiotic-resistance genes; assay type: cell-based
E. coli [2] = assay type: cell-based
[3] = system: E. coli, S. aureus, Klebsiella pneumoniae, A. baumannii, and P. aeruginosa; assay: ZINC15 compound validation, growth inhibition against a range of pathogens; assay type: cell-based; settings: LB media
[4] = system: ciprofloxacin-resistant gyrA S83A mutant of BW25113; assay type: cell-based, E. coli
E. coli MC1061 = assay: DiSC3(5) assay, E. coli; assay type: cell-based; settings: early-log cells in buffer
E. coli BW25113 [5] = assay: Growth inhibition assay against E. coli; assay type: cell-based; settings: Escherichia coli, rich growth conditions, read-out: minimum inhibitory concentration (MIC)
M. tuberculosis H37Rv = assay: Growth inhibition of M. tuberculosis; assay type: cell-based; settings: Mycobacterium tuberculosis, 7H9 medium, stated as 1×MIC
A. baumannii CDC 288 [6] = assay: Growth inhibition of pan-resistant A. baumannii CDC 288 in vitro; assay type: cell-based; settings: Acinetobacter baumannii, CDC288, A. baumannii strain 288 (CDC)
C. difficile strain 630 = assay: Growth inhibition of C. difficile 630 in vitro; assay type: cell-based; settings: Clostridioides difficile; C. difficile strain 630, in vitro
ΔnfsAΔnfsB E. coli = assay type: cell-based; settings: deletion of nfsA and nfsB
[7] = system: Carbapenem-resistant Enterobacteriaceae (CRE) clinical isolates; assay type: cell-based
[8] = system: A. baumannii clinical isolates; assay: Growth inhibition of multidrug-resistant clinical isolates, A. baumannii; assay type: cell-based; settings: 36 multidrug-resistant clinical isolates
[9] = system: Pseudomonas aeruginosa clinical isolates; assay: Growth inhibition of multidrug-resistant clinical isolates, P. aeruginosa; assay type: cell-based; settings: 36 multidrug-resistant clinical isolates
[10] = system: E. coli in a metabolically repressed, antibiotic-tolerant state; assay: Bacterial cell killing assay, E. coli in nutrient-free buffer (PBS); assay type: cell-based
E. coli persister cells = assay: Killing of E. coli persister cells after ampicillin treatment; assay type: cell-based; settings: cells that remained after treatment with ampicillin
M. tuberculosis = assay: Bacterial cell killing assay, M. tuberculosis in 7H9 media; assay type: cell-based, Mycobacterium tuberculosis; settings: 16 μg/ml
A. baumannii 288 cells = assay: Bacterial cell killing assay, A. baumannii CDC 288 in PBS; assay type: cell-based; settings: metabolically repressed
E. coli BW25113 [11] = assay: Evolution of resistance (serial passage, spontaneous suppressor generation); assay type: cell-based; settings: 30 days serial passaging in liquid media; seven days on solid media
S. aureus USA300 = assay: Growth inhibition of S. aureus in pH-adjusted media; assay type: cell-based, Staphylococcus aureus
E. coli [12] = assay: Growth inhibition checkerboards of halicin in combination; assay type: cell-based
[13] = system: daptomycin-resistant RN4220 strain (Δdsp1); assay type: cell-based, S. aureus
A. baumannii CDC 288 [14] = assay: A. baumannii mouse wound infection model; assay type: in vivo, Balb/c mice; settings: halicin 0.5% w/v topical, 25 hours post-infection
C. difficile 630 = assay: C. difficile mouse infection model; assay type: in vivo, C57BL/6 mice; settings: for rate of C. difficile clearance from feces: halicin 15 mg/kg, metronidazole 50 mg/kg, vehicle 10% PEG 300
E. coli [15] = assay type: cell-based; remark: listed apart in the source
MRSA = assay: Activity against MRSA; assay type: cell-based, Staphylococcus aureus
E. coli [16] = assay: Growth inhibition of E. coli in pH-adjusted or bicarbonate-supplemented media

In the case of `C[C@H]1CN(c2cc3c(cc2[N+](=O)[O-])c(=O)c(C(=O)O)cn3C2CC2)CCN1N=Nc1ccc(S(N)(=O)=O)cc1` [ZINC000100032716, 1-Cyclopropyl-7-[(3S)-3-methyl-4-[(4-sulfamoylphenyl)diazenyl]piperazin-1-yl]-6-nitro-4-oxoquinoline-3-carboxylic acid], the “activity against E. coli harboring resistance determinants” value [1] is reported as “overcome an array of common resistance determinants”, the “impact of plasmid-borne fluoroquinolone resistance on MIC” value [1] is reported as “only weakly impacted; also recorded: minor increase in MIC” and the “bactericidal activity against E. coli” value (E. coli [2]) is reported as “bactericidal activity”. The “spectrum of growth inhibitory activity” value [3] was “potent broad-spectrum activity”, the “impact of chromosomal resistance” value [4] was “only weakly impacted” and the “smaller change in MIC between gyrA mutant and wildtype E. coli relative to ciprofloxacin” value ([4]; gyrA S83A vs BW25113) was 4 fold.

polymyxin B [reference compound] was tested, and the “DiSC3(5) fluorescence change, E. coli” value (E. coli MC1061) was “corresponding increase in fluorescence”.

Work on `Nc1nnc(Sc2ncc([N+](=O)[O-])s2)s1` [halicin, 5-[(5-nitro-1,3-thiazol-2-yl)sulfanyl]-1,3,4-thiadiazol-2-amine] yielded an MIC (E. coli BW25113 [5]) of 2 µg/mL (≈ 7.65 µM), an MIC (M. tuberculosis H37Rv) of 16 µg/mL (≈ 61.2 µM) and an MIC (A. baumannii CDC 288 [6]) of 1 µg/mL (≈ 3.83 µM). The MIC (C. difficile strain 630) was 0.5 µg/mL (≈ 1.91 µM), the “change in MIC in the presence of resistance gene relative to antibiotic-susceptible parent strains” value [1] was “No change in halicin MIC” and the “change in MIC in nitrofurantoin-resistant E. coli” value (ΔnfsAΔnfsB E. coli) was “did not change”. The “growth inhibition of CRE clinical isolates” value [7] was “strong growth inhibitory activity”, the “growth inhibition of A. baumannii clinical isolates” value [8] was “strong growth inhibitory activity” and the “growth inhibition of P. aeruginosa clinical isolates” value [9] was “lack of efficacy”. The “bacterial cell killing, metabolically active E. coli” value (E. coli [2]) was “bacterial cell killing was observed”, the “bactericidal activity against metabolically repressed, antibiotic-tolerant E. coli” value [10] was “retained bactericidal activity against tolerant cells” and the “eradication of E. coli persister cells” value (E. coli persister cells) was “able to eradicate E. coli persister cells”. For the same compound, the “bactericidal activity against M. tuberculosis” value (M. tuberculosis) was “rapidly bactericidal”, the “killing of A. baumannii 288 in antibiotic-tolerant conditions” value (A. baumannii 288 cells) was “able to sterilize A. baumannii 288 cells” and the “evolution of resistant mutants” value (E. coli BW25113 [11]) was “not possible to isolate spontaneous suppressor mutants”. For the same compound, the “potency as a function of media pH, Staphylococcus aureus” value (S. aureus USA300) was “halicin potency decreased as pH increased”, the “DiSC3(5) fluorescence change, E. coli” value (E. coli MC1061) was “immediate decrease in DiSC3(5) fluorescence in a dose-dependent manner” and the interaction with kanamycin (E. coli [12]; checkerboard) was “synergized with kanamycin”. The interaction with tetracycline (E. coli [12]; checkerboard) was “antagonized the activity of tetracycline”, the “interaction with Fe^3+ (FeCl3)” value (E. coli [12]; increasing concentrations of environmental Fe^3+) was “enhanced potency of halicin” and the “cross-resistance in daptomycin-resistant S. aureus” value [13] was “did not confer cross-resistance to halicin”. The “bacterial load of wound tissue, one mouse” value (A. baumannii CDC 288 [14]) was “≈ 10^5 CFU/g”, the “bacterial load of wound tissue, 5 of the 6 mice” value (A. baumannii CDC 288 [14]; below the limit of detection) was “less than 10^3 CFU/g” and the “mice sterilized after 72 hours of treatment” value (C. difficile 630; 15 mg/kg gavage every 24 hours) was 3 out of 4. The “mice sterilized after 96 hours of treatment” value (C. difficile 630; 15 mg/kg gavage every 24 hours) was 4 out of 4, the “mice free of infection at 96 hours after treatment” value (C. difficile 630; 15 mg/kg, n=4) was 100% and the “rate of C. difficile clearance from feces” value (C. difficile 630) was “clearance from feces at a greater rate than vehicle or the antibiotic metronidazole”. For the same compound, the “expression of cell motility genes” value (E. coli [15]) was “rapid downregulation of genes involved in cell motility”, the “expression of iron homeostasis genes” value (E. coli [15]; sub-lethal concentrations) was “upregulation of genes required for iron homeostasis” and the “activity against MRSA” value (MRSA) was “potent activity”. The “potency as a function of media pH, E. coli” value (E. coli [16]) was “halicin potency decreased as pH increased” and the “effect of sodium bicarbonate on growth inhibition” value (E. coli [16]; 25 mM sodium bicarbonate in growth medium) was “antagonized the action of halicin”.

In the case of `Cc1ncc([N+](=O)[O-])n1CCO` [Metronidazole, metronidazole, reference compound], the “rate of C. difficile clearance from feces” value (C. difficile 630) is reported as “did not result in enhanced rates of clearance relative to vehicle controls”.

`CC1(C)S[C@@H]2[C@H](NC(=O)[C@H](N)c3ccccc3)C(=O)N2[C@H]1C(=O)O` [ampicillin, reference compound] was tested, and the “bacterial cell killing, metabolically active E. coli” value (E. coli [2]) was “efficacy against metabolically active cells” and the “bactericidal activity against metabolically repressed, antibiotic-tolerant E. coli” value [10] was “unable to eradicate E. coli”.

Source: patent publication US12469580B2, “In silico discovery of effective antimicrobials” (MASSACHUSETTS INSTITUTE OF TECHOLOGY, priority 2019, dated 2025)
